Series [1] deals with patients. As to conditions: some patients; thought to be due to effects on HERG and KCNQ channels; cited from earlier work.
Series [2] relates to fly heart. The experiment in a line: Drug application to the fly heart, induction of arrhythmias. The class given is in vivo, Drosophila. As to conditions: HERG and KCNQ channels present in fly heart. From the text:
According to another embodiment of the invention, methods are provided for testing a compound for cardioactivity comprising: (a) providing a composition comprising an excised, denervated Drosophila heart that retains myogenic activity, and a physiologically acceptable hemolymph fluid in contact with said Drosophila heart; (b) contacting the composition with the compound; and (c) assessing the effect of the compound on the myogenic activity of the semi-intact Drosophila heart. In one such embodiment the method comprises assessing the effect of the compound on myogenic activity of the semi-intact Drosophila heart by producing images of the semi-intact Drosophila heart and analyzing the images. In another such embodiment, the method comprises determining a member of the group consisting of heart period, heart rate, diastolic interval, systolic interval, standard deviation of heart period, standard deviation of heart rate, standard deviation of diastolic interval, standard deviation of systolic interval, percent fractional shortening of heart contraction, arrhythmia index, velocity of heart muscle contraction, and directionality of heart muscle contraction.
These are thought to be due to drug effects on both HERG and KCNQ channels. […] Thus, this system can be used to screen for possible drug side effects.

`CCCCCCC[N+](CC)(CC)CCCCc1ccc(Cl)cc1` [clofilium]: the “induction of arrhythmias in patients” value in series [1] is given as “induce arrhythmias in some patients”. In series [2], the “induction of arrhythmias in the fly” value was “induce arrhythmias in the fly”.

As to `CCCCCCCN(CC)CCCC(O)c1ccc(NS(C)(=O)=O)cc1` (stereo not shown) [ibutilide], in series [1], the “induction of arrhythmias in patients” value is “induce arrhythmias in some patients”. The “induction of arrhythmias in the fly” value in series [2] was “induce arrhythmias in the fly”.

Values taken from patent US9186093B2, “Compositions and methods for screening cardioactive drugs” (THE REGENTS OF THE UNIVERSITY OF CALIFORNIA, priority 2008, dated 2015).
